The source made the active and inactive calls. No cut-off for these calls is given here.
What was measured:
Human alphaherpesvirus 1 [1] = experiment: Antiviral activity against HSV-1 infected in african green monkey Vero cells assessed as inhibition of viral replication at 200 uM after 48 hrs by GFP reduction assay; format: functional, organism-based
Human alphaherpesvirus 1 [2] = experiment: Antiviral activity against HSV-1 infected in african green monkey Vero cells assessed as inhibition of viral replication at 50 uM after 48 hrs by GFP reduction assay; format: functional, organism-based
Human alphaherpesvirus 1 [3] = experiment: Antiviral activity against HSV-1 infected in african green monkey Vero cells assessed as inhibition of viral replication after 48 hrs by GFP reduction assay; format: functional, organism-based
Human alphaherpesvirus 1 [4] = experiment: Antiviral activity against HSV-1 infected in african green monkey Vero cells assessed as inhibition of GFP gene expression after 48 hrs by RT-PCR analysis; format: functional, organism-based
Human alphaherpesvirus 1 [5] = experiment: Antiviral activity against HSV-1 infected in african green monkey Vero cells assessed as inhibition of viral replication at 50 uM treated 2 hrs after post infection by GFP reduction assay; format: functional, organism-based
Human alphaherpesvirus 1 [6] = experiment: Antiviral activity against HSV-1 infected in african green monkey Vero cells assessed as inhibition of viral ICP4 gene expression after 48 hrs by RT-PCR analysis; format: functional, organism-based
Human alphaherpesvirus 1 [7] = experiment: Antiviral activity against HSV-1 infected in african green monkey Vero cells assessed as inhibition of viral replication at 48 uM after 48 hrs by plaque reduction assay; format: functional, organism-based
Human alphaherpesvirus 1 [8] = experiment: Antiviral activity against HSV-1 infected in african green monkey Vero cells assessed as inhibition of viral replication at 50 uM treated for 24 hrs measured 24 hrs after drug washout by GFP reduction assay; format: functional, organism-based
Human alphaherpesvirus 1 [9] = experiment: Antiviral activity against HSV-1 infected in african green monkey Vero cells assessed as inhibition of viral replication at 48 uM after 48 hrs by GFP reduction assay; format: functional, organism-based
Human alphaherpesvirus 1 [10] = experiment: Antiviral activity against HSV-1 infected in african green monkey Vero cells assessed as inhibition of viral replication at 50 uM after 48 hrs by GFP reduction assay relative to acyclovir; format: functional, organism-based
Vero = experiment: Cytotoxicity against african green monkey Vero cells up to 200 uM; format: cell-based; details: chlorocebus sabaeus

Question: Which inhibition (Human alphaherpesvirus 1 [1]) does the source give for `C[N+](C)(CCCN1c2ccccc2Sc2ccc(C(F)(F)F)cc21)Cc1ccccc1Cl` here?
Answer: The inhibition was “Active”.

Question: What about the inhibition (Human alphaherpesvirus 1 [2]) of the same compound?
Answer: The inhibition was “inactive”.

Question: With `C#CC[N+](C)(C)CCCN1c2ccccc2Sc2ccc(C(F)(F)F)cc21` as the compound, how does the inhibition (Human alphaherpesvirus 1 [3]) read?
Answer: The inhibition was “inactive”.

Question: How did the inhibition (Human alphaherpesvirus 1 [3]) turn out when `C[N+](C)(CCCN1c2ccccc2Sc2ccc(C(F)(F)F)cc21)Cc1ccccc1` was run?
Answer: Its inhibition is “inactive”.

Question: With `C[N+](C)(CC#N)CCCN1c2ccccc2Sc2ccc(C(F)(F)F)cc21` as the compound, how does the inhibition (Human alphaherpesvirus 1 [3]) read?
Answer: Its inhibition is “inactive”.

Question: What does the source list for `C[N+](C)(CCCN1c2ccccc2Sc2ccc(C(F)(F)F)cc21)Cc1cccc(Cl)c1`?
Answer: inhibition (Human alphaherpesvirus 1 [1]): Active; inhibition (Human alphaherpesvirus 1 [2]): inactive

Question: Which inhibition (Human alphaherpesvirus 1 [1]) does the source give for `CCCC[N+](C)(C)CCCN1c2ccccc2Sc2ccc(C(F)(F)F)cc21` here?
Answer: The inhibition was “Active”.

Question: For `O[C@]12C=C(c3nccc4c3[nH]c3ccccc34)[C@@H]3CCN(CCCC/C=C\CC1)C[C@@]31C[C@@H]3/C=C\CCCCN3[C@H]12`, which inhibition (Human alphaherpesvirus 1 [4]) is on record?
Answer: The inhibition was “inactive”.

Question: With `C=CC[N+](C)(C)CCCN1c2ccccc2Sc2ccc(C(F)(F)F)cc21` as the compound, how does the inhibition (Human alphaherpesvirus 1 [3]) read?
Answer: Its inhibition is “inactive”.

Question: What does the source list for `C[N+](C)(CCCN1c2ccccc2Sc2ccc(C(F)(F)F)cc21)Cc1ccc(Cl)cc1.[Cl-]`?
Answer: inhibition (Human alphaherpesvirus 1 [5]): inactive; inhibition (Human alphaherpesvirus 1 [6]): Active; inhibition (Human alphaherpesvirus 1 [4]): Active; inhibition (Human alphaherpesvirus 1 [7]): Active; inhibition (Human alphaherpesvirus 1 [8]): inactive; inhibition (Human alphaherpesvirus 1 [9]): Active; inhibition (Human alphaherpesvirus 1 [10]): Active; Activity (Vero): Non-toxic

Question: How did the inhibition (Human alphaherpesvirus 1 [3]) turn out when `C#CC[N+](C)(C)CCCN1c2ccccc2Sc2ccccc21` was run?
Answer: The inhibition was “inactive”.

Question: Which inhibition (Human alphaherpesvirus 1 [5]) does the source give for `Nc1nc2c(ncn2COCCO)c(=O)[nH]1` here?
Answer: Its inhibition is “Active”.

Question: What about the inhibition (Human alphaherpesvirus 1 [6]) of the same compound?
Answer: The inhibition was “Active”.

Question: And the inhibition (Human alphaherpesvirus 1 [4])?
Answer: The inhibition was “Active”.

Question: What about the inhibition (Human alphaherpesvirus 1 [7]) of the same compound?
Answer: Its inhibition is “Active”.

Question: And the inhibition (Human alphaherpesvirus 1 [8])?
Answer: The inhibition was “Active”.

Question: And the inhibition (Human alphaherpesvirus 1 [9])?
Answer: Its inhibition is “Active”.

Question: And the inhibition (Human alphaherpesvirus 1 [2])?
Answer: Its inhibition is “Active”.
